# The supplement of paper PMC10307832
# Experiments:
# Test in all cases: relative viability (nuclei count vs DMSO), 5 days (fraction); higher = more cells survive
# Obatoclax + OSI-027 = compound: COC1=CC(c2cc3ccccc3[nH]2)=N/C1=C\c1[nH]c(C)cc1C [Obatoclax] + COc1cccc2cc(-c3nc([C@H]4CC[C@H](C(=O)O)CC4)n4ncnc(N)c34)[nH]c12 [OSI-027] (partner 0.5 µM)
# Outline: (§1)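 Five library-drug doses in √10 steps were combined with a fixed anchor-drug dose, or a single drug was given alone, by pin tool to lung cancer cell lines in 1536-well plates the day after seeding. Nuclei were stained and counted after 5 days. Relative viability is the nuclei count in treated wells over that in vehicle wells, taken as the median of duplicate plates.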
# [1] = compound: CC1=CC(=NN1)NC2=CC(=NC(=N2)/C=C/C3=CC=CC=C3)N4CCN(CC4)C + COc1cc2c(Oc3ccc(NC(=O)C4(C(=O)Nc5ccc(F)cc5)CC4)cc3F)ccnc2cc1OCCCN1CCOCC1 [Foretinib] (partner 0.25 µM)
# Outline: as §1
# [2] = compound: CC1=CC(=NN1)NC2=CC(=NC(=N2)/C=C/C3=CC=CC=C3)N4CCN(CC4)C + C[C@]1(O)C[C@@H](c2nc(-c3ccc4ccc(-c5ccccc5)nc4c3)c3c(N)nccn32)C1 [Linsitinib] (partner 1 µM)
# Outline: as §1
# [3] = compound: CC1=CC(=NN1)NC2=CC(=NC(=N2)/C=C/C3=CC=CC=C3)N4CCN(CC4)C + CC(=O)Nc1cccc(-n2c(=O)n(C3CC3)c(=O)c3c(Nc4ccc(I)cc4F)n(C)c(=O)c(C)c32)c1 [Trametinib] (partner 0.02 µM)
# Outline: as §1
cell line,measurement,setting,value
NCI-H650,relative viability,Obatoclax + OSI-027; first compound 0.01 µM,0.568
same,relative viability,Obatoclax + OSI-027; first compound 0.03162 µM,0.449
same,relative viability,Obatoclax + OSI-027; first compound 0.3162 µM,0.419
same,relative viability,Obatoclax + OSI-027; first compound 1 µM,0.274
same,relative viability,[1]; first compound 0.253 µM,1.14
same,relative viability,[1]; first compound 0.8 µM,1.01
same,relative viability,[1]; first compound 2.53 µM,0.923
same,relative viability,[1]; first compound 8 µM,0.255
same,relative viability,[2]; first compound 0.08 µM,0.674
same,relative viability,[2]; first compound 0.253 µM,1.06
same,relative viability,[2]; first compound 0.8 µM,0.777
same,relative viability,[2]; first compound 2.53 µM,0.278
same,relative viability,[2]; first compound 8 µM,0.202
same,relative viability,[3]; first compound 0.08 µM,0.891
same,relative viability,[3]; first compound 0.253 µM,0.706
same,relative viability,[3]; first compound 0.8 µM,0.907
same,relative viability,[3]; first compound 2.53 µM,0.627
same,relative viability,[3]; first compound 8 µM,0.166
